For assay [1], the system named is murine tumor cell lines KB, L1210 and P388. In words: In vitro activity against one or all of the murine tumor cell lines KB, L1210 and P388. The class given is cell-based. The conditions noted are these: for in vitro antitumor activity: one or all of KB, L1210 and P388. The text has this:
(§1) A suitable solvent system was developed for the isolation of pure compounds of the invention by using the following systems in TLC. (A) chloroform (100%), (B) chloroform-ethyl acetate (80:20), (C) chloroform-acetone (80:20), (D) chloroform-methanol (80:20), (E) chloroform-acetic acid (95:5), (F) chloroform-acetone-acetic acid (90:8:2), (G) chloroform-hexane-acetic acid (50:50:5), (H) ether-petroleum ether (1:1), (I) chloroform-benzene methanol (6:3:1), (J) chloroform-benzene-methanol (7:3:2), (K) benzene-ethylacetate-methanol-formic acid-water (5:5:1.5:1:0.3), (L) chloroform-hexane-methanol (5:5:1) and (M) chloroform-heptane-methanol-acetic acid (40:40:18:2). In some of the solvents the order of elution changed. […] The crude compound was therefore chromatographed on a TLC grade silica gel column eluting with chloroform (100%), chlorform-acetic acid (99:1), chloroform-acetic acid (98:2), and chloroform-acetic acid (95:5). Based on the TLC, various fractions were combined to produce a red and purple eluate. These were separately concentrated and precipitated with chloroform-petroleum ether to yield red and purple powder. The red powder has been designated as maggiemycin (NSC-D344012) and the purple powder as anhydromaggiemycin. Both these compounds were active against Bacillus subtilis and Straphylococcus aureus. The in vitro antitumor activity of maggiemycin and anhydromaggiemycin against KB, P388 and L1210 murine cell lines is shown in Table 1.
The biological activity of these newly isolated anthracyclinones was compared with some of the known anthracyclinones. Each compounds was tested for in vitro activity against one or all of the murine tumor cell lines KB, L1210 and P388.

The subject of assay [2] is KB. In words: In vitro cytotoxicity (growth inhibition) against KB. The class given is cell-based, murine. The conditions noted are these: Homo sapiens, dose level at which 50% inhibition of growth in vitro is noted vs. untreated controls, read-out: ED50 KB.
From the text: as §1, with “The in vitro antitumor activity of maggiemycin and anhydromaggiemycin against KB, P388 and L1210 murine cell lines is shown in Table 1.” left out

The subject of assay [3] is P388. The assay can be described thus: In vitro cytotoxicity (growth inhibition) against P388. It is filed as cell-based, murine. The settings on record: Mus musculus, dose level at which 50% inhibition of growth in vitro is noted vs. untreated controls, read-out: ED50 P388.
From the text: as §1, with “The in vitro antitumor activity of maggiemycin and anhydromaggiemycin against KB, P388 and L1210 murine cell lines is shown in Table 1.” left out

Assay [4] relates to L1210. In words: In vitro cytotoxicity (growth inhibition) against L1210. The class given is cell-based, murine. The conditions noted are these: Mus musculus, dose level at which 50% inhibition of growth in vitro is noted vs. untreated controls, read-out: ED50 L1210.
From the text: as §1, with “The in vitro antitumor activity of maggiemycin and anhydromaggiemycin against KB, P388 and L1210 murine cell lines is shown in Table 1.” left out

Assay [5] relates to Straphylococcus aureus. In words: Antibacterial activity against Straphylococcus aureus. It is filed as cell-based.
Assay [6] deals with Bacillus subtilis. The assay can be described thus: Antibacterial activity against Bacillus subtilis. It is filed as cell-based.

Six compounds from patent US4501699A, “Maggiemycin, anhydromaggiemycin and processes for making” (Litton Bionetics, Inc., priority 1982, dated 1985) can be followed below.

Converted amounts (≈) assume the structure as drawn.

For `COc1cccc2c1C(=O)c1c(c(O)c3cc(C(C)=O)cc(O)c3c1O)C2=O` [anhydro-7-oxidodaunorubicinone, Anhydro-7-oxidodaunorubicinone], the “in vitro antitumor activity” value in assay [1] is “inactive”.
Turning to `COc1cccc2c1C(=O)c1c(O)c3c(c(O)c1C2=O)C[C@@](O)(C(C)=O)CC3=O` [7-oxidodaunorubicinone], the “in vitro antitumor activity” value in assay [1] is recorded as “active”.
As for `CCc1cc(O)c2c(O)c3c(c(O)c2c1C(=O)OC)C(=O)c1cccc(O)c1C3=O` [Anhydromaggiemycin], the IC50 in assay [2] came to 0.51 µg/mL (≈ 1.25 µM); in assay [3] it was 0.62 µg/mL (≈ 1.52 µM); in assay [4] it was 0.26 µg/mL (≈ 0.637 µM). Besides, in assay [1], the “in vitro antitumor activity” value is recorded as “active”. For the same compound, the “in vitro antitumor activity, comparison of anhydromaggiemycin with maggiemycin” value in assay [1] (relative to maggiemycin) is “more active than maggiemycin”. The “activity against Straphylococcus aureus” value in assay [5] was “active”. For the same compound, the “activity against Bacillus subtilis” value in assay [6] is “active”.
As for `COc1cccc2c1C(=O)c1c(O)c3c(c(O)c1C2=O)C[C@@](O)(C(C)=O)C[C@@H]3O` [daunorubicinone, Daunorubicinone, reference compound], the “in vitro antitumor activity” value in assay [1] was “inactive”.
Regarding `CC[C@@]1(O)CC(=O)c2c(O)c3c(c(O)c2[C@H]1C(=O)OC)C(=O)c1cccc(O)c1C3=O` [Maggiemycin], the IC50 in assay [2] was 2.7 µg/mL (≈ 6.33 µM); in assay [3], 4.4 µg/mL (≈ 10.3 µM); in assay [4], 5.2 µg/mL (≈ 12.2 µM). In addition, in assay [1], the “in vitro antitumor activity” value was “active”. In addition, the “activity against Straphylococcus aureus” value in assay [5] was “active”. Moreover, in assay [6], the “activity against Bacillus subtilis” value was “active”.
For `CC[C@@]1(O)C[C@H](O)c2c(O)c3c(c(O)c2[C@H]1C(=O)OC)C(=O)c1cccc(O)c1C3=O` [ε-rhodomycinone, ε-Rhodomycinone, reference compound], the “in vitro antitumor activity” value in assay [1] is “inactive”.
